Results reported in PubChem BioAssay (NCI).
Values joined by “and” are separate entries in the source; they are usually repeats but may differ in a detail not shown here. Identical values can stand only once.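 Interpolation was linear, between the two tested concentrations surrounding the appropriate level; five concentrations were tested over 48 hours in 96-well plates. At the GI50, growth is halved. The concentration for full growth arrest is given as TGI.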

Assays:
Test in all cases: growth of human tumour cells (NCI), 48 h
[1] = test system: 786-0 renal
[2] = test system: A498 renal
[3] = test system: A549 NSCLC
[4] = test system: ACHN renal
[5] = test system: CAKI-1 renal
[6] = test system: DU-145 prostate
[7] = test system: HOP-62 NSCLC
[8] = test system: IGROV1 ovarian
[9] = test system: KM20L2 colon
[10] = test system: MALME-3M melanoma
[11] = test system: MCF7 breast
[12] = test system: MDA-MB-231 breast
[13] = test system: MOLT-4 leukemia
[14] = test system: NCI-H226 lung
[15] = test system: NCI-H460 lung
[16] = test system: NCI-H522 lung
[17] = test system: OVCAR-3 ovarian
[18] = test system: OVCAR-5 ovarian
[19] = test system: SF-268 CNS
[20] = test system: SF-295 CNS
[21] = test system: SF-539 CNS
[22] = test system: SK-MEL-2 melanoma
[23] = test system: SK-MEL-5 melanoma
[24] = test system: SK-OV-3 ovarian
[25] = test system: SR leukemia
[26] = test system: T-47D breast
[27] = test system: TK-10 renal
[28] = test system: UACC-62 melanoma
[29] = test system: UO-31 renal
[30] = test system: BT-549 breast
[31] = test system: CCRF-CEM leukemia
[32] = test system: COLO 205 colon
[33] = test system: EKVX NSCLC
[34] = test system: HCC-2998 colon
[35] = test system: HCT-116 colon
[36] = test system: HCT-15 colon
[37] = test system: HL-60(TB) leukemia
[38] = test system: HOP-92 NSCLC
[39] = test system: HS 578T breast
[40] = test system: HT29 colon
[41] = test system: K-562 leukemia
[42] = test system: KM12 colon
[43] = test system: LOX IMVI melanoma
[44] = test system: M14 melanoma
[45] = test system: MDA-MB-435
[46] = test system: MDA-N
[47] = test system: NCI-H23 lung
[48] = test system: NCI/ADR-RES ovarian
[49] = test system: OVCAR-4 ovarian
[50] = test system: OVCAR-8 ovarian
[51] = test system: PC-3 prostate
[52] = test system: RPMI-8226 leukemia
[53] = test system: RXF 393 renal
[54] = test system: SK-MEL-28 melanoma
[55] = test system: SN12C renal
[56] = test system: SNB-19 CNS
[57] = test system: SNB-75 CNS
[58] = test system: SW-620 colon
[59] = test system: U251 CNS
[60] = test system: UACC-257 melanoma

## CCCCCC(=O)OC[n+]1ccc2c(C)c3[nH]c4ccc(OC)cc4c3c(C)c2c1
[1]
  TGI: 1.51 µM
[2]
  TGI: 2.17 µM
[3]
  TGI: 13.7 µM
[4]
  TGI: 4.78 µM
[5]
  TGI: > 23 µM
[6]
  TGI: 3.19 µM
[7]
  TGI: 2.28 µM
[8]
  TGI: 3.71 µM
[9]
  TGI: > 100 µM
[10]
  TGI: > 63.6 µM
[11]
  TGI: 1.96 µM
[12]
  TGI: 1.83 µM
[13]
  TGI: > 100 µM
[14]
  TGI: 31 µM
[15]
  TGI: 1.04 µM
[16]
  TGI: > 100 µM
[17]
  TGI: > 100 µM
[18]
  TGI: 2.24 µM
[19]
  TGI: > 100 µM
[20]
  TGI: 1.72 µM
[21]
  TGI: 1.17 µM
[22]
  TGI: > 100 µM
[23]
  TGI: > 100 µM
[24]
  TGI: 3.03 µM
[25]
  TGI: > 100 µM
[26]
  TGI: 13.1 µM
[27]
  TGI: 9.74 µM
[28]
  TGI: 3.31 µM
[29]
  TGI: 3.31 µM

## COC(=O)CN1Cc2cc(C)cc(c2O)CN(CC(=O)OC)Cc2cc(C)cc(c2O)CN(CC(=O)OC)Cc2cc(C)cc(c2O)CN(CC(=O)OC)Cc2cc(C)cc(c2O)C1
[1]
  TGI: 50 µM and > 100 µM
[2]
  GI50: > 100 µM
  TGI: 50 µM and > 100 µM
[3]
  GI50: 46.4 µM
  TGI: 50 µM and > 100 µM
[4]
  GI50: 34.6 µM
  TGI: 50 µM and > 100 µM
[30]
  GI50: 15.3 µM
  TGI: 50 µM and 77.7 µM
[5]
  TGI: 50 µM
[31]
  GI50: 5.37 µM
  TGI: 50 µM and 33.2 µM
[32]
  GI50: 28.6 µM
  TGI: 50 µM and > 100 µM
[6]
  GI50: 33.3 µM
  TGI: 50 µM and > 100 µM
[33]
  GI50: 35.3 µM
  TGI: 50 µM and > 100 µM
[34]
  GI50: 25.2 µM
  TGI: 50 µM and > 100 µM
[35]
  GI50: 27.7 µM
  TGI: 50 µM and > 100 µM
[36]
  GI50: 25 µM
  TGI: 50 µM and > 100 µM
[37]
  TGI: 16 µM
[7]
  GI50: 23.3 µM
  TGI: 47.8 µM and > 100 µM
[38]
  GI50: 21.5 µM
  TGI: > 50 µM and 97.5 µM
[39]
  GI50: > 100 µM
  TGI: 50 µM and > 100 µM
[40]
  TGI: 50 µM
[8]
  TGI: 50 µM
[41]
  GI50: 61.2 µM
  TGI: 50 µM and > 100 µM
[42]
  GI50: 50.2 µM
  TGI: 50 µM and > 100 µM
[43]
  GI50: 8.68 µM
  TGI: 50 µM and > 100 µM
[44]
  GI50: 17.7 µM
  TGI: 18.7 µM and 51.5 µM
[10]
  TGI: 50 µM
[11]
  GI50: 39.9 µM
  TGI: 50 µM and > 100 µM
[12]
  GI50: 34.7 µM
  TGI: 50 µM and > 100 µM
[45]
  GI50: 45.9 µM
  TGI: 50 µM and > 100 µM
[46]
  GI50: 84.1 µM
  TGI: > 100 µM
[13]
  GI50: 39.8 µM
  TGI: 50 µM and > 100 µM
[14]
  GI50: 11.1 µM
  TGI: 47.2 µM and > 100 µM
[47]
  TGI: 50 µM and > 100 µM
[15]
  GI50: 21.7 µM
  TGI: 50 µM and > 100 µM
[16]
  TGI: > 100 µM
[48]
  GI50: 21.9 µM
  TGI: 50 µM and 64 µM
[17]
  GI50: 5.7 µM
  TGI: 32.1 µM and > 100 µM
[49]
  GI50: 33.1 µM
  TGI: 50 µM and > 100 µM
[18]
  GI50: 5.26 µM
  TGI: 50 µM and > 100 µM
[50]
  GI50: 18.7 µM
  TGI: 50 µM and > 100 µM
[51]
  TGI: 50 µM and > 100 µM
[52]
  GI50: 87.6 µM
  TGI: 50 µM and > 100 µM
[53]
  GI50: 36.1 µM
  TGI: 28.6 µM and > 100 µM
[19]
  GI50: > 100 µM
  TGI: 50 µM and > 100 µM
[20]
  GI50: 34.1 µM
  TGI: 50 µM and > 100 µM
[21]
  GI50: 37.3 µM
  TGI: 50 µM and > 100 µM
[22]
  GI50: 2.36 µM
  TGI: 50 µM and 31.3 µM
[54]
  GI50: 27.9 µM
  TGI: 50 µM and > 100 µM
[23]
  GI50: 37.7 µM
  TGI: 50 µM and > 100 µM
[24]
  GI50: 35.3 µM
  TGI: 46.2 µM and > 100 µM
[55]
  GI50: 51.6 µM
  TGI: 50 µM and > 100 µM
[56]
  GI50: 18.3 µM
  TGI: 50 µM and > 100 µM
[57]
  GI50: 42.5 µM
  TGI: 50 µM and > 100 µM
[25]
  GI50: 18 µM
  TGI: 50 µM and > 100 µM
[58]
  GI50: 18 µM
  TGI: 50 µM and > 100 µM
[26]
  GI50: 36.4 µM
  TGI: 50 µM and > 100 µM
[27]
  GI50: > 100 µM
  TGI: 50 µM and > 100 µM
[59]
  GI50: 30.9 µM
  TGI: 50 µM and > 100 µM
[60]
  GI50: 50.4 µM
  TGI: 50 µM and > 100 µM
[28]
  TGI: > 100 µM
[29]
  GI50: 33.8 µM
  TGI: 50 µM and > 100 µM

## O=S(=O)(O)c1c(Cl)c(Cl)c(O)c2ncccc12
[1]
  TGI: 21.1 µM
[2]
  TGI: 26 µM
[3]
  TGI: 28.3 µM
[4]
  TGI: 26.2 µM
[30]
  TGI: 67.3 µM
[5]
  TGI: 65.4 µM
[31]
  TGI: 31.7 µM
[32]
  TGI: 31.8 µM
[6]
  TGI: 61.4 µM
[33]
  TGI: 41.6 µM
[34]
  TGI: 31.4 µM
[35]
  TGI: 16.6 µM
[36]
  TGI: 27.1 µM
[37]
  TGI: 4.75 µM
[7]
  TGI: 17.6 µM
[38]
  TGI: 47.8 µM
[39]
  TGI: 54.4 µM
[40]
  TGI: 24 µM
[8]
  TGI: 16 µM
[41]
  TGI: > 48.5 µM
[42]
  TGI: 33.2 µM
[43]
  TGI: 7.99 µM
[44]
  TGI: 27.1 µM
[10]
  TGI: 31.1 µM
[11]
  TGI: 21.6 µM
[12]
  TGI: > 93.1 µM
[45]
  TGI: 30.5 µM
[46]
  TGI: 43.6 µM
[13]
  TGI: 20.1 µM
[14]
  TGI: 64.3 µM
[47]
  TGI: 29.6 µM
[15]
  TGI: 25.5 µM
[16]
  TGI: 21.4 µM
[48]
  TGI: 49.7 µM
[17]
  TGI: 42.3 µM
[49]
  TGI: 47.1 µM
[18]
  TGI: 42 µM
[50]
  TGI: 51.3 µM
[51]
  TGI: > 59.6 µM
[52]
  TGI: > 83.6 µM
[53]
  TGI: 44.5 µM
[19]
  TGI: 13.8 µM
[20]
  TGI: 33.2 µM
[21]
  TGI: > 56.7 µM
[22]
  TGI: 45 µM
[54]
  TGI: 39.8 µM
[23]
  TGI: 28.6 µM
[24]
  TGI: 25.8 µM
[55]
  TGI: 40.8 µM
[56]
  TGI: 44.1 µM
[57]
  TGI: 39.3 µM
[25]
  TGI: 27.6 µM
[58]
  TGI: > 72.4 µM
[26]
  TGI: 22 µM
[27]
  TGI: 27.4 µM
[59]
  TGI: 47.2 µM
[60]
  TGI: 97.6 µM
[28]
  TGI: 29.7 µM
[29]
  TGI: 22.7 µM
